These results are taken from patent US20240124483A1, “Methods for the Treatment of Fibrotic Disease” (SHY Therapeutics, LLC, priority 2021, published 2024).

Structures are written as SMILES. Where two headings read alike, the source gives them in different places.

One experiment has as its target KRas G12D mutant (Homo sapiens (Human), UniProt P01116, G12D). As to the kind of experiment: Ras GTP Binding Domain Inhibition Assay, KRas G12D mutant. As to conditions: for inhibition at 20 µM: Table 7; for KRas G12D mutant + SOS: % inh. / KRas G12D mutant: % inh.: 20 uM, Table 8. The essentials: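 Steps: coat His-tagged protein (10-30 μg/mL) on nickel wells overnight at 4° C; add test compound, 20 μM final or serial dilution, 1% DMSO, 3 h RT; optional Sos final hour; add 100 nM Cy3-GTP or Cy5-GTP, 45 min; wash and read fluorescence.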

The subject of the next experiment is Smad2/3 phosphorylation. Put plainly: Phospho-Smad2/3 Inhibition Assay in Panc-1 (western blot). In kind it is cell-based. As to conditions: Homo sapiens; 10 μM, 3 hours; PANC-1 stimulated with 10 ng/ml TGF-b1 for 1 hour; read-out: % inh of Smad2/3 phosphorylation in PANC-1. The essentials: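 Serum-starved cells (0.5% FBS overnight) pretreated 3 h at 37 °C with compound at 10 μM or serial dilutions for IC50, in 0.3% DMSO. TGF-b1 10 ng/ml stimulation: 1 h for Panc-1 (human), 20 min for C2C12 (mouse). Phospho-Smad2 (Ser465/467) and phospho-Smad3 (Ser423/425) measured by western blot of lysates.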

In another experiment the test system is MiaPaca2. Put plainly: MiaPaca2 proliferation. In kind it is cell-based. The settings on record: Homo sapiens, MIA PaCa-2; for inhibition at 10 µM: read-out: % inh of proliferation in MiaPaca2.
For a further experiment, the system named is MAPK p38. As to the kind of experiment: MAPK p38 Activation Assay in Panc-1 (western blot). Type of experiment: cell-based, Human. Details: key: Y = yes; N = No. The settings on record: at 10 μM. The essentials:
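Cells serum-starved overnight in 0.5% FBS, then compound 3 h at 37° C (10 μM or serial dilutions for IC50; 0.3% DMSO). TGF-b1 10 ng/ml stimulation followed: 1 h for Panc-1, 20 min for C2C12. Phospho-p38 (Thr180/Tyr182) measured by western blot of lysates.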

Where [1] appears, read: + SOS, read-out: KRas G12D mutant + SOS: % inh.
Where [2] appears, read: without SOS, read-out: KRas G12D mutant: % inh.

KRas G12D mutant, sequence (P01116 other isoform, or with tags, fused parts or gaps G12D): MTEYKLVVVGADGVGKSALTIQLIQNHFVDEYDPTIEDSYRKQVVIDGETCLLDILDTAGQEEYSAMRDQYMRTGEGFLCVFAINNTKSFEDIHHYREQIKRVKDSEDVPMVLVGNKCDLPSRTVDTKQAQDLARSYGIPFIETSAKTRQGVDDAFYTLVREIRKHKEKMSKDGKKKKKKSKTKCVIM

Broadly, the IC50 is the midpoint of a concentration-inhibition curve. Regarding `COCCn1c(-c2nccn2C)nc2sc(-c3ccn(C(C)C)n3)c(C)c2c1=O` [Compound 29, 6-(1-Isopropyl-1H-pyrazol-3-yl)-3-(2-methoxyethyl)-5-methyl-2-(1-methyl-1H-imidazol-2-yl)thieno[2,3-d]pyrimidin-4(3H)-one], the inhibition at 20 µM on KRas G12D mutant (setting [1]) and on KRas G12D mutant (setting [2]) was 46 to 75% throughout. Also, at KRas G12D mutant (+ SOS), the “KRas G12D mutant + SOS: % inh.” value is recorded as “C (C = 46-75% inhibition)”. In addition, the “KRas G12D mutant: % inh.” value on KRas G12D mutant (without SOS) is given as “C (C = 46-75% inhibition)”. The inhibition at 10 µM was 0% with Smad2/3 phosphorylation and 46 to 75% with MiaPaca2. Also, the IC50 in the experiment on MiaPaca2 lay in the range of 5 to 10 µM. Besides, the “Activation of MAPK p38 in PANC-1” value in the experiment on MAPK p38 is listed as “Y”.

Take `COCCOc1nc(-c2nccn2C)nc2sc(-c3ccn(C(C)C)n3)c(C)c12` [Compound 30, 6-(1-Isopropyl-1H-pyrazol-3-yl)-4-(2-methoxyethoxy)-5-methyl-2-(1-methyl-1H-imidazol-2-yl)thieno[2,3-d]pyrimidine]: the inhibition at 20 µM on KRas G12D mutant (setting [1]) and on KRas G12D mutant (setting [2]) was 0% in each case. Also, on KRas G12D mutant (+ SOS), the “KRas G12D mutant + SOS: % inh.” value is reported as 0 (0 = 0% inhibition). The “KRas G12D mutant: % inh.” value on KRas G12D mutant (without SOS) is given as 0 (0 = 0% inhibition). Also, the inhibition at 10 µM is 0% with Smad2/3 phosphorylation and 1 to 25% in the experiment with MiaPaca2. In the experiment with MiaPaca2, this molecule gave an IC50 greater than 10 µM. Besides, in the experiment with MAPK p38, the “Activation of MAPK p38 in PANC-1” value was “N”.

Turning to `COCCCn1c(-c2nccn2C)nc2sc(-c3ccn(C(C)C)n3)c(C)c2c1=O` [Compound 31, 6-(1-Isopropyl-1H-pyrazol-3-yl)-3-(3-methoxypropyl)-5-methyl-2-(1-methyl-1H-imidazol-2-yl)thieno[2,3-d]pyrimidin-4(3H)-one], the inhibition at 20 µM on KRas G12D mutant (setting [1]) and on KRas G12D mutant (setting [2]) was 0% in each case. Moreover, the “KRas G12D mutant + SOS: % inh.” value at KRas G12D mutant (+ SOS) is recorded as 0 (0 = 0% inhibition). Further, the “KRas G12D mutant: % inh.” value at KRas G12D mutant (without SOS) is reported as 0 (0 = 0% inhibition). Moreover, the inhibition at 10 µM in the experiment on Smad2/3 phosphorylation and in the experiment on MiaPaca2 was 0% in each case. The IC50 with MiaPaca2 is greater than 10 µM. In the experiment with MAPK p38, the “Activation of MAPK p38 in PANC-1” value was “N”.

For the molecule `COCCCOc1nc(-c2nccn2C)nc2sc(-c3ccn(C(C)C)n3)c(C)c12` [Compound 32, 6-(1-Isopropyl-1H-pyrazol-3-yl)-4-(3-methoxypropoxy)-5-methyl-2-(1-methyl-1H-imidazol-2-yl)thieno[2,3-d]pyrimidine], the inhibition at 20 µM on KRas G12D mutant (setting [1]) and on KRas G12D mutant (setting [2]) was 46 to 75% throughout. Also, at KRas G12D mutant (+ SOS), the “KRas G12D mutant + SOS: % inh.” value is given as “C (C = 46-75% inhibition)”. Also, the “KRas G12D mutant: % inh.” value on KRas G12D mutant (without SOS) was “C (C = 46-75% inhibition)”. In addition, the inhibition at 10 µM is 0% in the experiment on Smad2/3 phosphorylation and 76 to 100% with MiaPaca2. In the experiment on MiaPaca2, this molecule came in with an IC50 of 5 to 10 µM. In addition, the “Activation of MAPK p38 in PANC-1” value in the experiment on MAPK p38 is listed as “N”.

Turning to `COCCCCn1c(-c2nccn2C)nc2sc(-c3ccn(C(C)C)n3)c(C)c2c1=O` [Compound 33, 6-(1-Isopropyl-1H-pyrazol-3-yl)-3-(4-methoxybutyl)-5-methyl-2-(1-methyl-1H-imidazol-2-yl)thieno[2,3-d]pyrimidin-4(3H)-one], the inhibition at 20 µM at KRas G12D mutant (setting [1]) and at KRas G12D mutant (setting [2]) was 0% throughout. At KRas G12D mutant (+ SOS), the “KRas G12D mutant + SOS: % inh.” value is recorded as 0 (0 = 0% inhibition). The “KRas G12D mutant: % inh.” value at KRas G12D mutant (without SOS) is 0 (0 = 0% inhibition). Further, the inhibition at 10 µM with Smad2/3 phosphorylation and in the experiment with MiaPaca2 was 0% throughout. The IC50 in the experiment with MiaPaca2 is greater than 10 µM. Further, in the experiment with MAPK p38, the “Activation of MAPK p38 in PANC-1” value is recorded as “N”.

Take `COCCCCOc1nc(-c2nccn2C)nc2sc(-c3ccn(C(C)C)n3)c(C)c12` [Compound 34, 6-(1-Isopropyl-1H-pyrazol-3-yl)-4-(4-methoxybutoxy)-5-methyl-2-(1-methyl-1H-imidazol-2-yl)thieno[2,3-d]pyrimidine]: the inhibition at 20 µM at KRas G12D mutant (setting [1]) is 0%; on KRas G12D mutant (setting [2]), 1 to 25%. For the same molecule, the “KRas G12D mutant + SOS: % inh.” value on KRas G12D mutant (+ SOS) was 0 (0 = 0% inhibition). Besides, the “KRas G12D mutant: % inh.” value at KRas G12D mutant (without SOS) is reported as “A (A = 1-25% inhibition)”. The inhibition at 10 µM in the experiment on Smad2/3 phosphorylation is 0%; in the experiment with MiaPaca2 it was 26 to 45%. Besides, the IC50 in the experiment with MiaPaca2 was greater than 10 µM. The “Activation of MAPK p38 in PANC-1” value in the experiment on MAPK p38 is given as “N”.

`COc1cc(Cn2c(-c3nccn3C)nc3sc(-c4ccn(C(C)C)n4)c(C)c3c2=O)ncn1` [Compound 35, 6-(1-Isopropyl-1H-pyrazol-3-yl)-3-((6-methoxypyrimidin-4-yl)methyl)-5-methyl-2-(1-methyl-1H-imidazol-2-yl)thieno[2,3-d]pyrimidin-4(3H)-one]: the results for the inhibition at 20 µM on KRas G12D mutant (setting [1]) and at KRas G12D mutant (setting [2]) were 0% and 1 to 25%, respectively. The “KRas G12D mutant + SOS: % inh.” value on KRas G12D mutant (+ SOS) is recorded as 0 (0 = 0% inhibition). Also, the “KRas G12D mutant: % inh.” value on KRas G12D mutant (without SOS) was “A (A = 1-25% inhibition)”. Further, the inhibition at 10 µM in the experiment with Smad2/3 phosphorylation and in the experiment on MiaPaca2 was 0% each time. In the experiment on MiaPaca2, the IC50 is greater than 10 µM. In addition, the “Activation of MAPK p38 in PANC-1” value in the experiment on MAPK p38 is “N”.

Take `COCCCn1c(-c2nccn2C)nc2sc(-c3ccn(C(C)C)n3)c(-c3ccccc3)c2c1=O` [Compound 36, 6-(1-Isopropyl-1H-pyrazol-3-yl)-3-(3-methoxypropyl)-2-(1-methyl-1H-imidazol-2-yl)-5-phenylthieno[2,3-d]pyrimidin-4(3H)-one]: the inhibition at 20 µM at KRas G12D mutant (setting [1]) and on KRas G12D mutant (setting [2]) was 0% in each case. Further, the “KRas G12D mutant + SOS: % inh.” value on KRas G12D mutant (+ SOS) is recorded as 0 (0 = 0% inhibition). The “KRas G12D mutant: % inh.” value at KRas G12D mutant (without SOS) was 0 (0 = 0% inhibition). Besides, the inhibition at 10 µM is 0% in the experiment with Smad2/3 phosphorylation and 76 to 100% in the experiment with MiaPaca2. Further, the IC50 with MiaPaca2 fell in the range of 5 to 10 µM. For the same molecule, the “Activation of MAPK p38 in PANC-1” value in the experiment with MAPK p38 was “Y”.

For the molecule `COCCCOc1nc(-c2nccn2C)nc2sc(-c3ccn(C(C)C)n3)c(-c3ccccc3)c12` [Compound 37, 6-(1-Isopropyl-1H-pyrazol-3-yl)-4-(3-methoxypropoxy)-2-(1-methyl-1H-imidazol-2-yl)-5-phenylthieno[2,3-d]pyrimidine], the inhibition at 20 µM on KRas G12D mutant (setting [1]) and on KRas G12D mutant (setting [2]) was 0% throughout. Also, the “KRas G12D mutant + SOS: % inh.” value at KRas G12D mutant (+ SOS) was 0 (0 = 0% inhibition). The “KRas G12D mutant: % inh.” value on KRas G12D mutant (without SOS) is 0 (0 = 0% inhibition). Moreover, the inhibition at 10 µM in the experiment on Smad2/3 phosphorylation was 0%; with MiaPaca2, 1 to 25%. Further, in the experiment on MiaPaca2, the IC50 is greater than 10 µM. The “Activation of MAPK p38 in PANC-1” value in the experiment on MAPK p38 was “Y”.

On to `COc1cccc(-c2sc3nc(-c4nccn4C)nc(N[C@H]4C[C@H](OC)C4)c3c2-c2ccccc2)c1F` [Compound 40, 6-(2-Fluoro-3-methoxyphenyl)-N-((1r,3r)-3-methoxycyclobutyl)-2-(1-methyl-1H-imidazol-2-yl)-5-phenylthieno[2,3-d]pyrimidin-4-amine], for which the results for the inhibition at 20 µM at KRas G12D mutant (setting [1]) and on KRas G12D mutant (setting [2]) were 76 to 100% and 46 to 75%, respectively. Besides, the “KRas G12D mutant + SOS: % inh.” value on KRas G12D mutant (+ SOS) is “D (D = 76-100% inhibition)”. Besides, the “KRas G12D mutant: % inh.” value on KRas G12D mutant (without SOS) is on record as “C (C = 46-75% inhibition)”. The inhibition at 10 µM in the experiment on Smad2/3 phosphorylation and in the experiment on MiaPaca2 was 76 to 100% throughout. In the experiment on MiaPaca2, the IC50 fell in the range of 1 to 4.99 µM. Moreover, in the experiment on MAPK p38, the “Activation of MAPK p38 in PANC-1” value is “Y”.
